{
  "source": "paper PMC10827914",
  "about": "(Cellular and Molecular Life Sciences: CMLS, 2024)",
  "key": {"[1]": {"tested_on": "soluble CD13 from human serum (sCD13)", "test": "Competitive ELISA of sCD13 binding to mAb WM15", "conditions": "plates coated with mAb WM15 5 μg/mL, human serum diluted 1:2, 2 h, room temperature", "experimental": "Fig. 4 The active site of membrane CD13 expressed by HUVEC, but not that of soluble CD13 or membrane CD13 expressed by HL60 cells, is accessible to G4-TNF. A Competitive effects of G4 and G4-TNF on the binding of mAb WM15 (anti-CD13) to sCD13 or rCD13 showing the lack of binding of G4-TNF to natural and recombinant soluble CD13 (sCD13 and rCD13). G4, scrambled G4 (GCRSNCYRVG), and TNF were used as positive (G4) and negative (scrambled G4, TNF) controls. The sCD13 competition assay was performed as follows: microplates were coated with mAb WM15 (5 μg/mL) in DPBS and incubated overnight at 4 °C. […] The mixtures were incubated for 2 h at room temperature and washed with DPBS. To detect bound sCD13, we added an anti-CD13 rabbit polyclonal antibody (1:1000, 1 h at room temperature), washed with DPBS, and added peroxidase-labeled goat anti-rabbit secondary antibody (1:2000, 1 h). Bound peroxidase was detected using o-phenylendiamine chromogenic substrate. The absorbance of o-phenylenediamine was measured at 490 nm using an ELISA plate reader (Bio-Rad). Cumulative results of two independent experiments, each performed in duplicate, are shown (mean ± SEM). The rCD13 competition assay was performed as described in Supplementary Fig. S2 (one experiment in duplicate, mean ± SEM). […]"}, "[2]": {"tested_on": "membrane CD13 expressed by HUVEC", "test": "Competitive binding of anti-CD13 mAb WM15 to HUVEC by flow cytometry", "design": "species or system human", "experimental": "HUVEC were seeded in 96-well U-bottom polystyrene microtiter plates at a density of 2 × 10^5 cells in 100 µL DPBS supplemented with 5% normal human serum (NHS) and mixed with a mixture of peptide G4 ranging from 0 to 10 µM and mAb WM15 (0 or 0.13 nM). The chromogranin A429-439 peptide fragment (CgA429-439) was used instead of G4 as a control. After 1 h of incubation at 4 °C, the cells were washed and resuspended in 100 µL of DPBS containing 5% NHS and 1 µg/mL of FITC-labeled goat anti-mouse IgG secondary antibody. Cells were subsequently incubated for 1 h at 4 °C, washed, and analyzed by flow cytometry. All flow cytometry data were collected on a CytoFLEX S flow cytometer (Beckman Coulter) and analyzed using FlowJo software 10 (BD BioScience).\nFig. 2 G4 recognizes soluble forms of CD13, with higher affinity and selectivity than bestatin, and the membrane forms expressed on the surface of HUVEC cells. A Inhibitory effects of G4 and bestatin on the enzymatic activities of different aminopeptidases (rCD13, APA, and APB). Various amounts of G4 or bestatin were incubated with rCD13 (0.2 µg/mL in 60 mM Tris–HCl pH 7.4), APA (0.2 µg/mL in 60 mM Tris–HCl pH 7.4, 50 mM calcium chloride, 200 mM sodium chloride) or APB (0.2 µg/mL in 60 mM Tris–HCl pH 7.4, 100 mM potassium chloride) and the corresponding substrates at 0.1 mM (L-alanine-7-amido-4-methylcoumarin for rCD13, L-glutamic acid γ-(7-amido-4-methylcoumarin) for APA, and L-arginine-7-amido-4-methylcoumarin for APB). The mixtures were incubated for 30 min at 37 °C, and the cleavage of each substrate was monitored by measuring the fluorescence of methylcoumarin (λex 341 nm; λem 441 nm) using an Infinite 200 PRO plate reader (Tecan). Three independent experiments were performed for each enzyme. […] Substrate cleavage by sCD13 dissociated from mAb WM15 was then monitored by measuring the absorbance at 405 nm in each well using a plate reader (Bio-Rad). […] After incubation for 60 min at 4 °C, the cells were washed and analyzed by flow cytometry. Data are expressed as the percentage of counts vs. fluorescence intensity units […]"}},
  "data": [
    {"substance": "VGCARRYCS-TNF [G4-TNF, recombinant murine TNF fused to the C-terminus of G4]", "values": [
      {"measurement": "Competition of sCD13 binding to mAb WM15 (in words)", "setting": "[1]", "result": "no competition was observed"},
      {"measurement": "Competition of mAb WM15 binding to HUVEC (in words)", "setting": "[2]; Fig. 4C and 4D", "result": "competed the binding of mAb WM15 to endothelial cells"},
      {"measurement": "Competition of mAb WM15 binding to HUVEC (in words)", "setting": "[2]; competitor 5 µM, mAb WM15 0.13 nM, 60 min, 4 °C, Supplementary Fig. S4D", "result": "competed with the binding of mAb WM15 (anti-CD13) to HUVEC to an extent similar to that observed with G4"}
    ]}
  ]
}
